Reference: patent publication US4853221A, “Method for treating non-small cell lung cancer, head and neck cancers and breast cancer” (Warner-Lambert Company, priority 1987, dated 1989)

Experiments:
[1] = system: Colon tumor; test: Human tumor cloning system, colon tumors; assay type: cell-based; conditions: one hour, 9 specimens
Excerpt: (§1) The activity of trimetrexate was compared with that of methotrexate in tests with a human tumor cloning system (Latham, et al., Proc. Am. Assoc. Cancer Res., 24: 278 (1983)). The data from these tests appear in Table III were the activities are expressed as the numbers of tumors with 50% or greater reduction in tumor colony forming units after one hour exposure to the drug.

[2] = system: AML K-562; test: Inhibition of AML K-562 cell growth in vitro; assay type: cell-based, human; conditions: K562, 48 h; Human AML K-562; read-out: ED50 (the source's name)
Procedure: (§2) Logarithmically growing L1210 cells (approximately 3×10^5 cells/ml) were diluted with Fischer's medium (containing 10% horse serum) to an approximate concentration of 5×10^4 cells/ml. Cells were planted in duplicate into 15 ml culture tubes containing either no drug or various amounts of drug, and incubated for 48 hours at 37° C. before being counted.
(§3) Trimetrexate was also evaluated in a similar manner side-by-side with methotrexate for its effect on the growth of three additional murine cell lines (L5178Y, Sarcoma-180, and Walkler-256) and three human cell lines (acute myelogenous leukemia K-562, T-cell 8402, and B-cell 8392), propagated in vitro.

[3] = system: L5178Y; test: Inhibition of L5178Y cell growth in vitro; assay type: cell-based, murine
Procedure: Two leukemia cell lines (L1210 and L5178Y) and two solid tumor cell lines (Sarcoma 180 and Walker 256) were used in these studies.
as §2, §3

[4] = system: colon carcinoma; test: Phase I clinical trials, colon carcinoma; assay type: in vivo, human; conditions: single agent
Procedure: Several Phase I clinical trials employing trimetrexate in human patients were carried out. In one study, 36 patients were treated with trimetrexate as a single agent at daily doses of 0.5 mg/m^2 /day to 12 mg/m^2 /day administered intravenously for five days.
In additional Phase I clinical studies, patients were administered trimetrexate with single intravenous doses ranging between 5 and 450 mg/m^2 and with weekly doses of slightly greater than 100 mg/m^2.

[5] = system: T-Cell 8402; test: Inhibition of T-Cell 8402 growth in vitro; assay type: cell-based, human; conditions: 48 h; Human T-Cell 8402; read-out: ED50 (the source's name)
Procedure: as §2, §3

[6] = system: Melanoma; test: Human tumor cloning system, melanoma; assay type: cell-based; conditions: one hour, 5 specimens
Excerpt: as §1

[7] = system: P388 murine leukemia; test: Schedule dependence against P388 murine leukemia; assay type: in vivo, mouse
Procedure: In the L1210, P388, and B-16 melanoma models, results are expressed as a percentage of median control survival time. Percentage of increase in survival time and/or cures (30 day survivors) were the parameters used to measure the effectiveness of the agents.
(§4) Percent increase in median life span (% ILS) values appearing in the tables were calculated from the formula; 100×(median life span in days of treated mice minus median life span in days of untreated mice) divided by median life span in days of untreated control mice. That is, % ILS=[100×(T-C)]/C. % T/C and %ILS are directly interconvertible by the formula % ILS=% T/C -100.
L1210 Leukemic Cells (10^5 /mouse) and P388 leukemic cells (10^6 /mouse)were in the ascites form and were transferred to BD2F1 or CD2F1 mice by intraperitoneal (ip) injection of 0.1 ml of cells taken from animals bearing 6- to 7-day old tumors. Leukemic cells were injected ip one day prior to the start of treatment.
The dose schedule dependence of trimetrexate was tested against transplanted P388 leukemia using the protocol outlined above.

[8] = system: Lewis lung carcinoma; test: Antitumor activity against Lewis lung carcinoma in mice; assay type: in vivo, mouse; conditions: optimal dose 40 mg/kg (dose range 40-1.25), IV daily, Days 1-9
Procedure: (§5) The growth inhibition properties of 5-methyl-6-[[(3,4,5-trimethoxyphenyl)amino]methyl]-2,4-quinazolinediamine (trimetrexate) against several transplanted murine tumors were evaluated employing the antitumor screening program of the Drug Evaluation Branch of the National Cancer Institute. The protocols for these tests is described in Cancer Chemotherapy Reports, 3: 1-103 (1972). The dosing schedules are results from these tests appear in Table IV.
as §4
(§6) In all of the mouse tumor studies described above, routine controls consisted of matching ten normal mice (with no tumors) to each tumor-bearing treatment group and injecting them with the same drug at the same dosages, schedules, days of administration, and drug route as the tumor-bearing mice. In this way, drug-induced toxicity (lethality and weight loss) could be clearly separated from the effects of the drug on the tumors.

[9] = system: human tumor cultures; test: Human tumor cloning system, all tumors; assay type: cell-based; conditions: for Number of Tumors with 50% or Greater Decrease in Tumor Colony Forming Units: Totals, one hour, 54 specimens
Excerpt: as §1

[10] = system: CD8F1 Mammary tumor; test: Antitumor activity against CD8F1 mammary tumor in mice; assay type: in vivo, mouse; conditions: for Tumor Weight Inhibition % TWI: Sc every 7 days, Days 1,8,15,22,19
Procedure: as §5
Mouse Mammary Tumor Was propagated in CD8F1 female mice as spontaneous tumors. Approximately 10^6 cells were then implanted subcutaneously into CD8F1 mice. […] At the end of the experiment (30 days), individual tumor weights were determined by caliper measurements. Each tumor weight was calculated as described previously for colon 26 and 38 tumors. A criterion of % T/C tumor weight of 42% or less was considered indicative of activity, with a reproducible 10% T/C tumor weight or less indicative of substantive activity.
as §6

[11] = system: dihydrofolate reductase; test: Inhibition of dihydrofolate reductase; assay type: biochemical
[12] = 13 mg/kg, every 3 hours, daily, Days 1, 5, and 9
[13] = 20 mg/kg, every 3 hours, daily, Days 1, 5, and 9
[14] = 30 mg/kg, every 3 hours, daily, Days 1, 5, and 9
[15] = 45 mg/kg, every 3 hours, daily, Days 1, 5, and 9

COc1cc(NCc2ccc3nc(N)nc(N)c3c2C)cc(OC)c1OC [Trimetrexate, 5-methyl-6-[[(3,4,5-trimethoxyphenyl)amino]methyl]-2,4-quinazolinediamine]
Number of Tumors with 50% or Greater Decrease in Tumor Colony Forming Units ([1]; trimetrexate 0.1 μg/ml): 4 | Number of Tumors with 50% or Greater Decrease in Tumor Colony Forming Units ([1]; trimetrexate 1.0 μg/ml): 4 | IC50 [2]: 10 nM | IC50 ([3]; Mus musculus, 48 h, Murine L5178Y, read-out: ED50 (the source's name)): 2 nM | potency relative to methotrexate ([3]; on a molar basis): only slightly more effective on a molar basis | patients with favorable responses [4]: four | IC50 [5]: 10 nM | Number of Tumors with 50% or Greater Decrease in Tumor Colony Forming Units ([6]; trimetrexate 0.1 μg/ml): 2 | Number of Tumors with 50% or Greater Decrease in Tumor Colony Forming Units ([6]; trimetrexate 1.0 μg/ml): 3 | % T/C [7, 12]: 185% | Weight Change [7, 12]: 1.0 Grams | % T/C [7, 13]: 194% | Weight Change [7, 13]: -0.2 Grams | % T/C ([7]; 22 mg/kg, Days 1 and 9): 164% | Weight Change ([7]; 22 mg/kg, Days 1 and 9): 1.8 Grams | % T/C [7, 14]: 203% | Weight Change [7, 14]: 0.6 Grams | % T/C ([7]; 33 mg/kg, Days 1 and 9): 169% | Weight Change ([7]; 33 mg/kg, Days 1 and 9): 0.8 Grams | % T/C [7, 15]: 212% | Weight Change [7, 15]: -1.7 Grams | % T/C ([7]; 50 mg/kg, Days 1 and 9): 166% | Weight Change ([7]; 50 mg/kg, Days 1 and 9): 0.3 Grams | % T/C ([7]; 53 mg/kg, Day 1 only): 100% | % T/C ([7]; 53 mg/kg, Days 1, 5, and 9): 116% | Weight Change ([7]; 53 mg/kg, Days 1, 5, and 9): 2.9 Grams | % T/C ([7]; 75 mg/kg, Days 1 and 9): 181% | Weight Change ([7]; 75 mg/kg, Days 1 and 9): -2.6 Grams | % T/C ([7]; 80 mg/kg, Day 1 only): 104% | % T/C ([7]; 80 mg/kg, Days 1, 5, and 9): 119% | Weight Change ([7]; 80 mg/kg, Days 1, 5, and 9): 1.3 Grams | % T/C ([7]; 120 mg/kg, Day 1 only): 113% | % T/C ([7]; 120 mg/kg, Days 1, 5, and 9): 154% | Weight Change ([7]; 120 mg/kg, Days 1, 5, and 9): -2.5 Grams | % T/C ([7]; 180 mg/kg, Day 1 only): 12% | % T/C ([7]; 180 mg/kg, Days 1, 5, and 9): 9% | optimal dose regimen ([7]; every three hours on Days 1, 5, and 9, minimal weight loss and maximum life span response): about 30 mg/kg/injection | Life Span % T/C [8]: Negligible | Number of Tumors with 50% or Greater Decrease in Tumor Colony Forming Units ([9]; trimetrexate 0.1 μg/ml): 11 | Number of Tumors with 50% or Greater Decrease in Tumor Colony Forming Units ([9]; trimetrexate 1.0 μg/ml): 13 | human tumor cultures sensitive to trimetrexate and resistant to methotrexate ([9]; trimetrexate 0.1 μg/ml, methotrexate 0.3 μg/ml, 8/54): 15% | Tumor Weight Inhibition % TWI ([10]; optimal dose 120 mg/kg (dose range 120-3.75)): 100% | Tumor Weight Inhibition % TWI ([10]; optimal dose 180 mg/kg (dose range 270-35)): 100% | antitumor activity ([10]; subcutaneously implanted): good activity | inhibition of dihydrofolate reductase [11]: potent inhibitor
